Laboratory results reported in paper PMC8396041, “A Michael Acceptor Analogue, SKSI-0412, Down-Regulates Inflammation and Proliferation Factors through Suppressing Signal Transducer and Activator of Transcription 3 Signaling in IL-17A-Induced Human Keratinocyte” (International Journal of Molecular Sciences, 2021).
pKd: −log10 of the molar value.

Molecular target: T1, STAT3 (Homo sapiens, UniProt P40763)
T1 construct: Recombinant human STAT3 protein (Abnova, cat no. H00006774-P01)
Experiment: intrinsic fluorescence quenching titration (ex […] nm, em […] nm)
Format: binding

T1 sequence (P40763 2-770): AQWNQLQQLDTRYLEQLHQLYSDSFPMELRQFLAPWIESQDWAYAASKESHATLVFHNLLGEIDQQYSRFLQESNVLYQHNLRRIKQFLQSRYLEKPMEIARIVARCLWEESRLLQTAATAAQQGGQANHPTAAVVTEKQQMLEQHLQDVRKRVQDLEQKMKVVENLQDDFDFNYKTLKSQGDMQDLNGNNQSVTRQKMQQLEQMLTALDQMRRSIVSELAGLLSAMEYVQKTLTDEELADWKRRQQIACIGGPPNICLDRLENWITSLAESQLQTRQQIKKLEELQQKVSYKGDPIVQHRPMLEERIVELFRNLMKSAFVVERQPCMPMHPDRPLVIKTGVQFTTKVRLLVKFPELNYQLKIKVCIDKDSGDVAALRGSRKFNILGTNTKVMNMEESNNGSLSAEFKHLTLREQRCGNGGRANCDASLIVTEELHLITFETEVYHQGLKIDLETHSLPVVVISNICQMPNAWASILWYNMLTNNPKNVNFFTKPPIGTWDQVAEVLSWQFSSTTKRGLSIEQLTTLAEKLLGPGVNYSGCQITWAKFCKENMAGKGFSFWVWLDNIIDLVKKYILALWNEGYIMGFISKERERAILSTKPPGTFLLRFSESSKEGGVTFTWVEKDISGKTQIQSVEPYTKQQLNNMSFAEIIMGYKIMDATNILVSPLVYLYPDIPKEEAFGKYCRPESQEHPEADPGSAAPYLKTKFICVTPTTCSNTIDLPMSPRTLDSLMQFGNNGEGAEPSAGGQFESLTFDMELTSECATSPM

Work on C=C(C(=O)c1ccc2c(c1)C=CC(C)(C)O2)c1ccc(OC)c(OC)c1 [compound 4, 2-(3,4-Dimethoxyphenyl)-1-(2,2-Dimethyl-2H-Chromen-6-yl)Prop-2-en-1-One] yielded a pKd of 4.57.
